{
  "source": "paper PMC12366525",
  "about": "“Characterization of allosteric modulators that disrupt androgen receptor co-activator protein-protein interactions to alter transactivation–Drug leads for metastatic castration resistant prostate cancer” (SLAS discovery : advancing life sciences R & D, 2023)",
  "key": {"[1]": {"target": "T1, AR-LBD::TIF2-Box III-LXXLL-Peptide (Homo sapiens, UniProt P10275)", "T1 construct": "The pET28a-AR-LBD (622–919) construct [78] was a gift; made in house", "T1 sequence (P10275 622-919)": "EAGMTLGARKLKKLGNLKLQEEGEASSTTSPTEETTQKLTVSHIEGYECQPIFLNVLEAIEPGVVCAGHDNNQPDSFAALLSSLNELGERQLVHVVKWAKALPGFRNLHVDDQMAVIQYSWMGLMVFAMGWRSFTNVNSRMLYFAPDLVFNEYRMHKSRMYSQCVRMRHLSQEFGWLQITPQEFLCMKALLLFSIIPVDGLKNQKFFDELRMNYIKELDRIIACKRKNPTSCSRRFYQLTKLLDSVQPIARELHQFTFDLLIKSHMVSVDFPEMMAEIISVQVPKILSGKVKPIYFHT", "experiment": "AR-LBD::TIF2-Box III-LXXLL-peptide AlphaScreen binding assay", "conditions": "DHT-induced TIF2 box 3 LXXLL-peptide binding to recombinant AR-LBD", "from_the_text": "The pET28a-AR-LBD (622–919) construct was a gift from Dr. Fletterick and Dr. Nguyen of University of California San Francisco. Biotinylated (Biotin-HN-[…]-CONH2) and non-biotinylated TIF2-box-III (738–756) peptide (H2N-[…]-CONH2) were synthesized by the Peptide & Peptoid Synthesis Facility, at the University of Pittsburgh Health Sciences Core Research Facilities. ALPHAScreen streptavidin donor beads (SA-DB) and nickel chelate acceptor beads (Ni-AB) were purchased from Perkin Elmer (Waltham, MA). The assay was performed in 384-well white opaque plates (Greiner BioOne, #781080). […] 18 uL of the SA-DB bound biotinylated TIF2 peptide mixture was added to the assay plate before 5 μL of compounds were transferred into assay wells and 27 μL of the AlphaScreen donor and acceptor bead mixture was added to the plate. 32 wells containing 0.5% DMSO provided maximum controls and 32 wells containing a 500-fold excess of unlabeled TIF2-box-III (75 μM) were used as minimum controls. The combined bead-protein-peptide-compound mixture was incubated for 1 h at room temperature in the dark, and then the RLU’s were acquired at 520 nm after excitation at 680 nm on an Envision plate reader (Perkin Elmer, Waltham, MA) as described previously."}, "AR-V7": {"target": "T2, AR-V7 (Homo sapiens, UniProt P10275)", "T2 construct": "expressed in transfected cells; host or cells: PC3 cells stably expressing AR-V7-GFP", "T2 sequence (P10275 1-644 isoform P10275-3)": "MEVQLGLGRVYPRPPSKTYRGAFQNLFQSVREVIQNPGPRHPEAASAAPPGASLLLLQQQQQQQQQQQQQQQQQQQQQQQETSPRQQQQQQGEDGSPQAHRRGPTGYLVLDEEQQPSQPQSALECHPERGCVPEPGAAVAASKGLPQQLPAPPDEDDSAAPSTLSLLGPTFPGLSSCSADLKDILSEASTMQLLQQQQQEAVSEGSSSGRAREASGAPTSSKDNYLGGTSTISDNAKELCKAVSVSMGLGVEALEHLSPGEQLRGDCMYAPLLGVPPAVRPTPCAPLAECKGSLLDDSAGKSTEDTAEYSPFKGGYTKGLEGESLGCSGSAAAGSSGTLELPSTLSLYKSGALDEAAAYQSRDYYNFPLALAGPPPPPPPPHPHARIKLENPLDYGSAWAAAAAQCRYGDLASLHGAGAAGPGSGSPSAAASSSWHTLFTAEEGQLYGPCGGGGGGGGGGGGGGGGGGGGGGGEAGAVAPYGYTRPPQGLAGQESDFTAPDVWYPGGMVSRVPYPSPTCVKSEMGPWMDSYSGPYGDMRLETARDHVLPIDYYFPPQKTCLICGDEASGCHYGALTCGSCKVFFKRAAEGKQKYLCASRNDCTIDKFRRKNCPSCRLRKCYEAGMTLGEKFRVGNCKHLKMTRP", "experiment": "UBE2C promoter driven luciferase reporter assay in PC3-AR-V7-GFP cells", "type": "cell-based", "conditions": "constitutive, 24 h; read-out: PC-3-ARV7-GFP UBE2C-Luc Reporter IC50", "experimental": "The pGL4.28-UBE2C 20bpX3 luciferase reporter plasmid was provided by Dr. Yan Dong from Tulane University. Fugene HD and the UBE2C-Luc plasmid (10 ng/well) were combined at a 3:1 (μL:μg) ratio, in Opti-MEM and incubated for 25 min at RT before being added to PC3-AR-V7-GFP cells that were suspended in RPMI 1640 (Gibco) media containing 1% L-glutamine (Invitrogen), and 10% fetal bovine serum (Gemini Bio-products). Bulk transfected PC3-AR-V7-GFP cells were seeded into white opaque 384-well assay plates (Greiner Bio-one, #781080) at a density of 3000 cell per well in a volume of 40 μL and incubated at 5% CO2, 37 °C, and 95% humidity for 24 h. After 24 h, 10 μL of compounds were transferred to assay wells and the plates were returned to the incubator for an additional 24 h before 25 μL of BrightGlo luciferase reagent (Promega) was added to the wells and the RLU’s were captured on a SpectraMax M5e plate reader (Molecular Devices LLC) as described previously."}},
  "data": [
    {"smiles": "Cc1ccccc1-c1cc(O)c2c(c1)CN(c1nc(C(N)=O)cs1)CCO2", "note": "[S1–1]", "values": [
      {"measurement": "IC50", "setting": "[1]", "value": 21.4, "unit": "µM"},
      {"measurement": "IC50", "setting": "AR-V7", "value": 34.7, "unit": "µM"}
    ]},
    {"smiles": "Cc1ccccc1-c1cc(O)c2c(c1)CN(c1nccs1)CCO2", "note": "[S1–3]", "values": [
      {"measurement": "IC50", "setting": "[1]", "value": 44.1, "unit": "µM"}
    ]},
    {"smiles": "Cc1nsc(NC(=O)N2CCC(Sc3ccccc3C)CC2)n1", "note": "[S2–6]", "values": [
      {"measurement": "IC50", "setting": "[1]", "value": 64.2, "unit": "µM"},
      {"measurement": "IC50", "setting": "AR-V7", "value": 14.5, "unit": "µM"}
    ]},
    {"smiles": "Cc1c(-c2ccccc2F)[nH]c2ccc(CNC(=O)CCc3cn[nH]c3)cc12", "note": "[S3–11]", "values": [
      {"measurement": "IC50", "setting": "[1]", "value": 88.3, "unit": "µM"},
      {"measurement": "IC50", "setting": "AR-V7", "value": 21, "unit": "µM"}
    ]},
    {"smiles": "Cc1c(-c2ccccc2F)[nH]c2ccc(CNC(=O)CCc3cnccn3)cc12", "note": "[S3–12]", "values": [
      {"measurement": "IC50", "setting": "AR-V7", "value": 17.7, "unit": "µM"}
    ]},
    {"smiles": "CC(=O)NCCC(=O)NCc1ccc2[nH]c(-c3ccccc3F)c(C)c2c1", "note": "[S3–13]", "values": [
      {"measurement": "IC50", "setting": "[1]", "value": 91.6, "unit": "µM"}
    ]},
    {"smiles": "Cc1c(-c2ccccc2F)[nH]c2ccc(CNC(=O)c3ccc(CO)o3)cc12", "note": "[S3–14]", "values": [
      {"measurement": "IC50", "setting": "[1]", "value": 28.3, "unit": "µM"},
      {"measurement": "IC50", "setting": "AR-V7", "value": 46, "unit": "µM"}
    ]},
    {"smiles": "Cc1c(-c2ccc(F)cc2)[nH]c2ccc(CNC(=O)c3ccc(CO)o3)cc12", "note": "[S3–15]", "values": [
      {"measurement": "IC50", "setting": "[1]", "value": 19.6, "unit": "µM"},
      {"measurement": "IC50", "setting": "AR-V7", "value": 18.5, "unit": "µM"}
    ]}
  ]
}
